According to PubChem BioAssay AID248 (DTP/NCI, 2004):
Where “and” joins values, the source holds several entries; their conditions need not be identical. Identical values can stand only once. Inconclusive results and toxic doses are left out. No stated cut-off is given here; in the data, active means T/C of 150% or more; inactive means T/C below 125%.

Tested on: L1210 leukemia ip in BDF1 mice, survival T/C
Assay: NCI In Vivo Anticancer Drug Screen. Data for tumor model L1210 Leukemia (intraperitoneal) in B6D2F1 (BDF1) mice
Settings: endpoint: mean survival time, higher = longer survival
Method in brief: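 Tumor cells were implanted, animals were treated, and survival was followed. The result divides the treated measurement by the vehicle-control measurement.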

Measured: T/C

Nc1ccc(OC(=O)Oc2ccc(N)cc2)cc1
inactive: dose: 5.0 mg/kg/injection, schedule: Q01DX Z (iv), vehicle: saline 101 % of control | dose: 6.25 mg/kg/injection, schedule: Q#A X Z (oral), vehicle: saline 106 % of control | dose: 10.0 mg/kg/injection, schedule: Q01DX Z (iv), vehicle: saline 101 % of control | dose: 12.5 mg/kg/injection, schedule: Q01DX Z (oral), vehicle: saline 104 % of control | dose: 12.5 mg/kg/injection, schedule: Q#A X Z (oral), vehicle: saline 108 % of control | dose: 16.0 mg/kg/injection, schedule: Q07DX003 (oral), vehicle: saline 103 % of control | dose: 20.0 mg/kg/injection, schedule: Q01DX Z (iv), vehicle: saline 100 % of control | dose: 25.0 mg/kg/injection, schedule: Q01DX Z (oral), vehicle: saline 104 % of control | dose: 25.0 mg/kg/injection, schedule: Q#A X Z (oral), vehicle: saline 112 % of control | dose: 31.0 mg/kg/injection, schedule: Q07DX003 (oral), vehicle: saline 98 % of control | dose: 37.0 mg/kg/injection, schedule: Q01DX Z (ip), vehicle: carboxymethylcellulose (CMC) 100 % of control | dose: 37.5 mg/kg/injection, schedule: Q01DX009 (ip), vehicle: other 101 % of control | dose: 37.5 mg/kg/injection, schedule: Q01DX017 (ip), vehicle: other 101 % of control | dose: 37.5 mg/kg/injection, schedule: Q#A X018 (ip), vehicle: other 97 % of control | dose: 38.0 mg/kg/injection, schedule: Q01DX Z (ip), vehicle: carboxymethylcellulose (CMC) 98 % of control | dose: 40.0 mg/kg/injection, schedule: Q01DX Z (iv), vehicle: saline 100 % of control | dose: 40.0 mg/kg/injection, schedule: Q#A X Z (ip), vehicle: saline 111 % of control | dose: 50.0 mg/kg/injection, schedule: Q01DX005 (ip), vehicle: saline 101 % of control | dose: 50.0 mg/kg/injection, schedule: Q01DX006 (iv), vehicle: saline 110 % of control | dose: 50.0 mg/kg/injection, schedule: Q01DX009 (ip), vehicle: saline 104 % of control | dose: 50.0 mg/kg/injection, schedule: Q01DX015 (ip), vehicle: other 115 % of control | dose: 50.0 mg/kg/injection, schedule: Q01DX Z (im), vehicle: saline 104 % of control | dose: 50.0 mg/kg/injection, schedule: Q01DX Z (oral), vehicle: saline 112 % of control | dose: 50.0 mg/kg/injection, schedule: Q01DX Z (sc), vehicle: saline 112 % of control | dose: 50.0 mg/kg/injection, schedule: Q## X003 (ip), vehicle: saline 102 % of control | dose: 50.0 mg/kg/injection, schedule: Q## X024 (ip), vehicle: saline 101 % of control | dose: 53.0 mg/kg/injection, schedule: Q01DX Z (ip), vehicle: carboxymethylcellulose (CMC) 89 % of control and 113 % of control | dose: 53.0 mg/kg/injection, schedule: Q01DX Z (ip), vehicle: saline 102 % of control | dose: 63.0 mg/kg/injection, schedule: Q07DX003 (oral), vehicle: saline 106 % of control | dose: 74.0 mg/kg/injection, schedule: Q01DX Z (ip), vehicle: carboxymethylcellulose (CMC) 113 % of control | dose: 75.0 mg/kg/injection, schedule: Q01DX009 (ip), vehicle: other 104 % of control | dose: 75.0 mg/kg/injection, schedule: Q01DX017 (ip), vehicle: other 104 % of control | dose: 75.0 mg/kg/injection, schedule: Q01DX Z (ip), vehicle: carboxymethylcellulose (CMC) 102 % of control | dose: 75.0 mg/kg/injection, schedule: Q#A X018 (ip), vehicle: other 118 % of control | dose: 80.0 mg/kg/injection, schedule: Q01DX012 (oral), vehicle: saline 94 % of control | dose: 80.0 mg/kg/injection, schedule: Q01DX Z (ip), vehicle: carboxymethylcellulose (CMC) 93 % of control | dose: 80.0 mg/kg/injection, schedule: Q01DX Z (ip), vehicle: saline 113 % of control | dose: 100.0 mg/kg/injection, schedule: Q01DX001 (ip), vehicle: saline 98 % of control | dose: 100.0 mg/kg/injection, schedule: Q01DX005 (ip), vehicle: saline 92 % of control | dose: 100.0 mg/kg/injection, schedule: Q01DX005 (oral), vehicle: saline 116 % of control | dose: 100.0 mg/kg/injection, schedule: Q01DX006 (iv), vehicle: saline 114 % of control | dose: 100.0 mg/kg/injection, schedule: Q01DX009 (oral), vehicle: saline 116 % of control | dose: 100.0 mg/kg/injection, schedule: Q01DX015 (ip), vehicle: clinical formulation 118 % of control | dose: 100.0 mg/kg/injection, schedule: Q## X003 (ip), vehicle: saline 106 % of control | dose: 100.0 mg/kg/injection, schedule: Q## X003 (oral), vehicle: saline 101 % of control | dose: 100.0 mg/kg/injection, schedule: Q## X008 (ip), vehicle: saline 101 % of control | dose: 120.0 mg/kg/injection, schedule: Q01DX012 (oral), vehicle: saline 105 % of control | dose: 120.0 mg/kg/injection, schedule: Q01DX Z (ip), vehicle: carboxymethylcellulose (CMC) 97 % of control | dose: 120.0 mg/kg/injection, schedule: Q01DX Z (ip), vehicle: saline 108 % of control and 117 % of control | dose: 125.0 mg/kg/injection, schedule: Q07DX003 (oral), vehicle: saline 106 % of control | dose: 135.0 mg/kg/injection, schedule: Q#A X Z (ip), vehicle: saline 102 % of control | dose: 149.0 mg/kg/injection, schedule: Q01DX Z (ip), vehicle: carboxymethylcellulose (CMC) 105 % of control | dose: 150.0 mg/kg/injection, schedule: Q01DX001 (ip), vehicle: other 109 % of control | dose: 150.0 mg/kg/injection, schedule: Q01DX Z (ip), vehicle: carboxymethylcellulose (CMC) 113 % of control | dose: 180.0 mg/kg/injection, schedule: Q01DX Z (ip), vehicle: carboxymethylcellulose (CMC) 98 % of control | dose: 180.0 mg/kg/injection, schedule: Q01DX Z (ip), vehicle: saline 105 % of control | dose: 180.0 mg/kg/injection, schedule: Q01DX Z (oral), vehicle: saline 110 % of control | dose: 200.0 mg/kg/injection, schedule: Q01DX001 (ip), vehicle: saline 110 % of control | dose: 200.0 mg/kg/injection, schedule: Q01DX005 (oral), vehicle: saline 110 % of control | dose: 200.0 mg/kg/injection, schedule: Q01DX008 (oral), vehicle: saline 93 % of control | dose: 200.0 mg/kg/injection, schedule: Q01DX015 (ip), vehicle: clinical formulation 108 % of control | dose: 200.0 mg/kg/injection, schedule: Q01DX015 (ip), vehicle: other 100 % of control | dose: 200.0 mg/kg/injection, schedule: Q## X003 (ip), vehicle: saline 98 % of control | dose: 200.0 mg/kg/injection, schedule: Q## X003 (oral), vehicle: saline 106 % of control | dose: 200.0 mg/kg/injection, schedule: Q## X008 (ip), vehicle: saline 104 % of control | dose: 200.0 mg/kg/injection, schedule: Q## X024 (ip), vehicle: saline 97 % of control | dose: 240.0 mg/kg/injection, schedule: Q03DX Z (ip), vehicle: saline 110 % of control | dose: 250.0 mg/kg/injection, schedule: Q01DX001 (oral), vehicle: saline 115 % of control | dose: 250.0 mg/kg/injection, schedule: Q03DX006 (oral), vehicle: saline 108 % of control | dose: 250.0 mg/kg/injection, schedule: Q07DX003 (oral), vehicle: saline 113 % of control | dose: 267.0 mg/kg/injection, schedule: Q## X024 (ip), vehicle: saline 106 % of control | dose: 267.0 mg/kg/injection, schedule: Q## X024 (oral), vehicle: saline 110 % of control | dose: 270.0 mg/kg/injection, schedule: Q01DX Z (ip), vehicle: carboxymethylcellulose (CMC) 101 % of control | dose: 270.0 mg/kg/injection, schedule: Q01DX Z (ip), vehicle: other 113 % of control | dose: 270.0 mg/kg/injection, schedule: Q01DX Z (ip), vehicle: saline 91 % of control | dose: 300.0 mg/kg/injection, schedule: Q01DX001 (ip), vehicle: other 103 % of control | dose: 360.0 mg/kg/injection, schedule: Q03DX Z (ip), vehicle: saline 110 % of control | dose: 400.0 mg/kg/injection, schedule: Q01DX001 (ip), vehicle: saline 97 % of control | dose: 400.0 mg/kg/injection, schedule: Q01DX006 (iv), vehicle: saline 118 % of control | dose: 400.0 mg/kg/injection, schedule: Q01DX008 (oral), vehicle: saline 92 % of control | dose: 400.0 mg/kg/injection, schedule: Q## X003 (ip), vehicle: saline 111 % of control | dose: 400.0 mg/kg/injection, schedule: Q## X003 (oral), vehicle: saline 105 % of control | dose: 400.0 mg/kg/injection, schedule: Q## X008 (ip), vehicle: saline 101 % of control | dose: 400.0 mg/kg/injection, schedule: Q## X024 (oral), vehicle: saline 102 % of control and 105 % of control | dose: 405.0 mg/kg/injection, schedule: Q01DX Z (ip), vehicle: other 116 % of control | dose: 500.0 mg/kg/injection, schedule: Q01DX001 (oral), vehicle: saline 110 % of control | dose: 500.0 mg/kg/injection, schedule: Q03DX006 (oral), vehicle: saline 115 % of control | dose: 500.0 mg/kg/injection, schedule: Q07DX003 (oral), vehicle: saline 111 % of control | dose: 540.0 mg/kg/injection, schedule: Q03DX Z (ip), vehicle: saline 115 % of control | dose: 560.0 mg/kg/injection, schedule: Q07DX Z (ip), vehicle: saline 110 % of control | dose: 600.0 mg/kg/injection, schedule: Q## X024 (oral), vehicle: saline 115 % of control | dose: 720.0 mg/kg/injection, schedule: Q01DX Z (oral), vehicle: saline 106 % of control | dose: 800.0 mg/kg/injection, schedule: Q01DX008 (oral), vehicle: saline 116 % of control | dose: 800.0 mg/kg/injection, schedule: Q## X003 (oral), vehicle: saline 102 % of control | dose: 1000.0 mg/kg/injection, schedule: Q01DX001 (oral), vehicle: saline 110 % of control | dose: 1000.0 mg/kg/injection, schedule: Q03DX006 (oral), vehicle: saline 114 % of control | dose: 2000.0 mg/kg/injection, schedule: Q01DX001 (oral), vehicle: saline 92 % of control
